Literature values as cited in patent US20230096856A1, “COMBINED TREATMENT REGIMEN OF […]/SEDATION WITH ADMINISTRATION OF P[…] ASSOCIATED WITH REDUCTION IN NEUROP[…]” (priority 2021, published 2023).

Key:
[1] = tested on: ventral dentate gyrus of the hippocampus; conditions: single dose
tinnitus = conditions: single dose, mice
Sigma-1 receptors [2] = target: Sigma-1 receptors (Homo sapiens, UniProt Q99720); conditions: receptors that modulate immune responses in human monocyte-derived dendritic cells
Sigma-1 receptors, sequence (Q99720 whole entry): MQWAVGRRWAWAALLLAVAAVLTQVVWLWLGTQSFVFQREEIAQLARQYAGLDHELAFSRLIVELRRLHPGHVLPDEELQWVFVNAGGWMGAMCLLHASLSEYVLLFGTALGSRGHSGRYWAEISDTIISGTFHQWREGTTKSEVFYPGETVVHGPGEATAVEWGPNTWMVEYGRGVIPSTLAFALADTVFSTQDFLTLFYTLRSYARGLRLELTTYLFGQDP

sigma-1 receptors [3] = tested on: sigma-1 receptors
[4] = tested on: hallucinogenic experience; conditions: in vivo
[5] = tested on: extracellular glutamate levels; conditions: rat models
BDNF = conditions: rats exposed to psychological stress
AMPA receptor = conditions: sub-anesthetic dose, animal studies
[6] = tested on: N-methyl-D-aspartate (NMDA) receptors
[7] = tested on: gamma-aminobutyric acid type A receptors; conditions: acutely
5-HT2A receptors = 5-HT2A receptors (Homo sapiens, UniProt P28223)
5-HT2A receptors, sequence (P28223 whole entry): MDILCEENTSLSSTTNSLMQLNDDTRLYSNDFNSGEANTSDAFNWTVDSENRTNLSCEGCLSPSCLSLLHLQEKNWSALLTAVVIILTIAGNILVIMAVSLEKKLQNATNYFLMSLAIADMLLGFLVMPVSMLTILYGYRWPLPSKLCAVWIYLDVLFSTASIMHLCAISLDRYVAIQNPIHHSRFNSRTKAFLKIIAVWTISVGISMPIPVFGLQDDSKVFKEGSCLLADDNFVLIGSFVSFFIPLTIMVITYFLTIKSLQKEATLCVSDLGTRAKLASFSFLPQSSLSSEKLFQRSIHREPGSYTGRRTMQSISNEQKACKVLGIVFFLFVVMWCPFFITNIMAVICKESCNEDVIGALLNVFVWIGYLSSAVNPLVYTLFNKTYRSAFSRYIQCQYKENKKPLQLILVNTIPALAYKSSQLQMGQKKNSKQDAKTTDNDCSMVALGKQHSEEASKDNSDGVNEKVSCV

## COc1ccc2[nH]cc(CCN(C)C)c2c1 [5-MeO-DMT, 5-5-Methoxy-N,N-dimethyltryptamine]
Phospholipase A2 (PLA2)
  PLA2 activation: differentially strong phospholipase A2 (PLA2) activation
[1]
  cell proliferation and neuronal survivability in the ventral dentate gyrus of the hippocampus: stimulates cell proliferation and neuronal survivability
[1]; adult mice
  neurogenesis in the ventral dentate gyrus: enhances neurogenesis
Human cerebral organoids
  mGluR5 regulation: downregulation of mGluR5
  neural plasticity and anti-inflammatory activity: potentiation of neural plasticity and elevated anti-inflammatory activity
tinnitus
  tinnitus: can be reduced
Sigma-1 receptors [2]
  affinity for Sigma-1 receptors: functionally significant affinity
sigma-1 receptors [3]
  IFNc and GM-CSF expression: suppressing
  secretion level of anti-inflammatory interleukin 10 cytokine: increase the secretion level
[4]
  duration of acute hallucinogenic state: 5 to 20 min
  duration of hallucinogenic experience: 10 to 20 min

## CNC1(c2ccccc2Cl)CCCCC1=O (stereo not drawn) [ketamine]
[5]
  extracellular glutamate levels in prefrontal-limbic circuitry: increases extracellular glutamate levels

## O=C(c1ccc(F)cc1)C1CCN(CCn2c(=O)[nH]c3ccccc3c2=O)CC1 [ketanserin]
BDNF
  BDNF mRNA: reducing the presence BDNF mRNA
  immunoreactivity indicative of BDNF presence in brain areas: inhibits BDNF immunoreactivity

## CC(C)c1cccc(C(C)C)c1O [propofol]
AMPA receptor
  expression of AMPA pGluR1: increase the expression of AMPA pGluR1 in dose-dependent manner
  speed and degree of glutamate-induced desensitization of the AMPA receptor in neurons: can decrease
[6]
  inhibition of NMDA receptors: does not induce inhibition
depression; EEG suppression ratio
  time after induction until desired SR>80% was reached: About five
depression; after approximately four sessions (1 week), asymptote at approximately 7 sessions (two weeks)
  QIDS-SR scale scores: significant reduction
depression; after eye opening
  average recovery time until oriented to time and place: 5 to 10 min
depression; in vivo
  cognitive side effects common for ECT (short term memory loss): do not occur
  effect on efficacy of ECT in treating depression: does not diminish the efficacy
  period within which severity of self-report symptoms of moderate to severe depression is reduced: 1-2 weeks
  time to state of unconsciousness upon induction: one
[7]
  LTP induction: inhibits long term potentiation (LTP) induction

## COC(=O)[C@@H]1C[C@H](OC(C)=O)C(=O)[C@H]2[C@@]1(C)CC[C@H]1C(=O)O[C@H](c3ccoc3)C[C@]21C [salvinorin A]
5-HT2A receptors
  interaction with 5-HT2A receptors: interact minimally, indirectly, or not at all

## ibogaine
5-HT2A receptors
  interaction with 5-HT2A receptors: interact minimally, indirectly, or not at all
